Values of other authors in patent US20100273749A1, “Method for Treating Dry-Eye Syndrome” (priority 2006, published 2010).

Tested on: ACAT
Conditions: several animal studies, nonselective ACAT inhibitors

Row | Compound | reduction of atherosclerotic plaques
1 | CCCCCCCCN1CCc2c(C)c(CC(=O)O)c(C)c(NC(=O)C(C)(C)C)c21 [pactimibe] | promising reduction of atherosclerotic plaques
2 | CC(C)c1cc(C(C)C)c(CC(=O)NS(=O)(=O)Oc2c(C(C)C)cccc2C(C)C)c(C(C)C)c1 [avasimibe] | promising reduction of atherosclerotic plaques
